“And” between values parts separate entries of the source, which are not always exact repeats. Identical values can stand only once.
Legend:
[1] = tested on: Human normal lung IMR90 fibroblasts; test: SMM-Seq detection of induced somatic SNVs in IMR90 cells treated with ENU; type: cell-based; details: for sSNVs frq / mutation spectra: CA count / mutation spectra: CG count / mutation spectra: CT count / mutation spectra: TA count / mutation spectra: TC count / mutation spectra: TG count: 72 hours; for sSNVs frq / sSNVs count: single biological replicate; for sSNVs frq: variants / qualified positions (SNV/1 Mb); for mutation spectra: CA count / mutation spectra: CG count / mutation spectra: CT count / mutation spectra: TA count / mutation spectra: TC count / mutation spectra: TG count: single replicate; for sSNVs count: harvested 72 hours after ENU
Protocol: Human normal lung IMR90 fibroblasts were maintained in 10% CO2 and 3% O2 atmosphere at 37° C. in DMEM (GIBCO, Grand Island, NY, USA) supplemented with 10% FBS (GIBCO). Twenty-four hours after cell seeding the culturing media was changed for media containing different doses of ENU. Cells were harvested 72 hours after ENU was applied. Complete media supplemented with ENU (SIGMA, San Louis, MO, USA) was prepared immediately before application from stock solution (100 mg/ml in 100% ethyl alcohol). Control cells were cultured in the presence of the vehicle only.
DNA from fibroblasts and hepatocytes was isolated using Quick-gDNA™ Blood MiniPrep (Zymo Research Corporation, Irvine, CA, USA) according to the manufacturer instructions and quantified using QUBIT kit (ThermoFisher Scientific, USA).
Genomic DNA was first fragmented by double digestion with restriction endonucleases AluI and MluCI (NEB, USA), overnight at 37° C. After purification using 1.5×AMPure XP beads (Beckman Coulter, USA) the fragmented DNA was further processed using NEBNext Ultra II DNA Library Prep Kit for Illumina (NEB). The adapter provided with the kit was replaced with custom adapter P5_HP6N. After double sided size-selection using AMPure XP beads (Beckman Coulter), resulting dumbbell-like product was quantified with QUBIT kit (ThermoFisher) and analyzed on 2100 Bioanalyzer instrument with High Sensitivity DNA kit (Agilent, USA). To prepare P5_HP6N adapter 86 μl of 10 μM solution of oligonucleotide 5′-TCTTC TACAGT NNNNNN AGATCG GAAGAG CACACG TCTGAA CTCCAG TC/ideoxyU/ACACTC TTTCCC TACACG ACGCTC TTCCGA TCT-3′ (IDT, USA) in 0.1×TE buffer was first exposed to 95° C. for 5′ followed by 37° C. for 5′ to form a hairpin. Next, to fill-in the extending 5′-end the self-annealed oligonucleotide was supplemented with 10 μl of Cutsmart buffer (NEB), 2 μl of 10 mM dNTPs mix (NEB) and 10 U of Klenow Fragment (3′→5′ exo-) (NEB) and incubated at 37° C. for 30′. After purification with QIAquick Nucleotide Removal Kit (QIAGEN, USA), the hairpins were digested with 10U of HpyCH4III (NEB) for 1 hour at 37° C., then purified again with QIAquick Nucleotide Removal Kit (QIAGEN) and eluted with 100 μl of EB to obtain ready to use adapter solution.
Next, for SMM sequencing library preparation samples were diluted based on assessed molar concentration. Assuming 150PE sequencing mode and 30 Gb of data per sample, the dilution coefficient (D) was calculated using the formula D=M*NA/1025, where M—sample concentration (pM); NA—Avogadro constant. Next, 1 μl of diluted sample was used as a template in pulse-RCA reaction. The pulse-RCA was performed in 20 μl reaction containing 1 μl of diluted sample, 1 μl of P5-RCA oligo (5′-[…]-3′), 25U (0.5 μl) of SD polymerase HS (BIORON Diagnostics GmbH, Germany), 2 μl of SD polymerase buffer, 1 μl of 10 mM dNTPs mix (NEB), 0.6 μl of 100 mM MgCl2, and 13.9 μl of water. The pulse-RCA program was set as follows: 92° C. for 2′ (1); 92° C. for 30″ (2); 60° C. for 30″ (3); 65° C. for 150″ (4); go to (3) 9 times; hold at 4° C. Product of amplification reaction was purified with […] AMPure XP beads and resuspended in 23 μl TE buffer. The entire volume of RC amplification was PCR amplified in 50 μl reaction volume containing 23 μl of RCA product, 25 μl of NEBNext Ultra II Q5 Master Mix and 1 μl of P5 and P7 dual index oligos. The PCR program was set as follows: 98° C. for 30″ (1); 98° C. for 10″ (2); 65° C. for 75″ (3); go to (2) 8 times (4); 65° C. for 5′ (5); 4° C. forever. The PCR product was purified with 0.7×AMPure XP beads and resuspended in 30 μl of TE buffer. After quantification with Qubit, samples were pooled and sequenced on Illumina NovaSeq instrument using 150 paired-end mode.
Conventional sequencing library was prepared by PCR amplification of adapter ligated samples in 30 μl reaction volume containing 11 μl of undiluted ligated sample, 2U of USER enzyme (NEB) 15 μl of NEBNext Ultra II Q5 Master Mix and 1 μl of P5 and P7 dual index oligos. […]

[2] = tested on: IMR90 cells; test: Cell death of IMR90 cells at the ENU doses used; type: cell-based, human; details: sub-lethal doses of ENU (25 and 50 μg/ml)
[3] = tested on: human primary mammary cells; test: SMM-SV somatic structural variant (SV) frequency after bleomycin; type: cell-based; details: two different doses of bleomycin, SMM-SV (FIG. 9C)
Excerpt: As explained, SMM is capable of identifying SNVs and small indels, but not SVs. This is due to the overwhelming amount of chimeric DNA fragments created during library construction. For SMM-seq and other single-molecule assays the process of linking DNA fragments to the sequencing adapters also results in random ligation of DNA fragments to each other. The resulting chimeric sequences are not distinguishable from true SVs since both strands are identical and represent the same SV (FIG. 9A). To address this problem, we used transposase-mediated tagmentation, i.e., the initial step in library preparation where high molecular weight DNA is cleaved and tagged for analysis. While commonly used in library preparation, we used it here in a different, unexpected way. Indeed, as commonly used tagmentation generates priming sites for subsequent PCR which in turn is prone to produce artificial chimeras, giving a similar problem as other approaches. […] To validate SMM-SV we evaluated somatic SV frequency in human primary mammary cells treated with two different doses of bleomycin, a potent […] known to induce somatic SVs. […]

[4] = Cond E25 (ENU 25 μg/ml), IMR90 cells
[5] = Cond E50 (ENU 50 μg/ml), IMR90 cells
[6] = IMR90 cells upon ENU treatment, mutational spectra (FIG. 2C)

Compound: CCN(N=O)C(N)=O [ENU, N-ethyl-N-nitrosourea]
- sSNVs frq [1, 4]: 0.411 and 0.3226 and 0.3595
- mutation spectra: CA count [1, 4]: 19 and 16 and 12
- mutation spectra: CG count [1, 4]: 7 and 8 and 4
- mutation spectra: CT count [1, 4]: 10 (2×) and 11
- mutation spectra: TA count [1, 4]: 13 and 10 and 16
- mutation spectra: TC count [1, 4]: 18 and 22 and 20
- mutation spectra: TG count [1, 4]: 9 and 12 and 7
- sSNVs count [1, 4]: 76 and 78 and 70
- sSNVs frq [1, 5]: 0.571 and 0.5406
- mutation spectra: CA count [1, 5]: 24 and 16
- mutation spectra: CG count [1, 5]: 2 and 6
- mutation spectra: CT count [1, 5]: 32 and 16
- mutation spectra: TA count [1, 5]: 38 and 20
- mutation spectra: TC count [1, 5]: 28 and 23
- mutation spectra: TG count [1, 5]: 17 and 9
- sSNVs count [1, 5]: 141 and 90
- increase of mutation frequency versus control ([1]; ENU 50 μg/ml, IMR90 cells): more than 2 fold
- mutation frequency ([1]; ENU 50 μg/ml, IMR90 cells, average±SD of three biological replicates, control 0.21±0.02, p=9.7*10-5): 0.54±0.03 SNV/1 Mb
- relative representation of AT/CG mutations versus untreated control cells [1, 6]: more than 2 times
- relative representation of AT/TA mutations versus untreated control cells [1, 6]: more than 2 times
- cell death [2]: do not cause any noticeable cell death

Compound: bleomycin
- somatic SV frequency [3]: induced SVs in a dose-dependent manner

Reference: patent US20250002972A1, “METHOD FOR MEASURING SOMATIC DNA MUTATION AND DNA DAMAGE PROFILES AND A […] SUITABLE THEREFORE” (Albert Einstein College of Medicine, priority 2021, published 2025)
